System: duplex-form calf thymus DNA (CT-DNA)
Assay: Thermal denaturation studies with calf thymus DNA
Type: binding
Settings: [PBD]:[DNA] molar ratio 1:5, CT-DNA 100 μM, ligand 20 μM, pH 7.00
Description: Compounds have been subjected to thermal denaturation studies with duplex-form calf thymus DNA (CT-DNA) using a modification of a reported procedure. Working solutions in aqueous buffer (10 mM NaH2PO4/Na2HPO4, 1 mM Na2EDTA, pH 7.00+0.01) containing CT-DNA (100 (μm in phosphate) and the PBD (20(μm) have been prepared by addition of concentrated PBD solutions in DMSO to obtain a fixed [PBD]/[DNA] molar ratio of 1:5. The DNA-PBD solutions have been incubated at 37° C. for 0 and 18 hrs prior to analysis. Samples have been monitored at 260 nm using a Beckman DU-800 spectrophotometer fitted with high performance temperature controller, and heated at 1° C. min^−1 in the 40-110° C. range. DNA helix→coil transition temperatures (Tm) have been obtained from the maxima in the d(A260)/d T derivative plots. Drug-induced alterations in DNA melting behavior are given by: ΔTm=Tm(DNA+PBD)−Tm(DNA alone), where the Tm value for the PBD-free CT-DNA is 68.5±0.01.
The DNA-binding for these novel C8-linked isoxazoline-PBD hybrids has been examined by thermal denaturation studies using calf thymus CT-DNA. […] Data for 5a-c, 9b and 9g and DC-81 are included in Table 4 for comparison.

Compound | ΔTm after incubation at 37° C. for 0 hrs [°C] | ΔTm after incubation at 37° C. for 18 hrs [°C]
COc1cc(C2=NOC(c3cc(OC)c(OC)c(OC)c3)C2)ccc1OCCCOc1cc2c(cc1OC)C(=O)N1CCC[C@H]1C=N2 (stereo partly drawn) [Compound 5a, (11aS)-7-(methyloxy)-8-(3-[(2-(methyloxy)-4-5-[3,4,5-tri(methyloxy)phenyl]-4-,5-dihydro-3-isoxazolylphenyl)oxy]propyloxy)-2,3,5,11a-tetrahydro-1H benzo[e]pyrrolo[1,2-a][1,4]diazepi-5-one] | 3.9 | 6.0
COc1cc2c(cc1OCCCCCOc1c(OC)cc(C3CC(c4ccc(OC)c(OC)c4OC)=NO3)cc1OC)N=C[C@@H]1CCCN1C2=O (stereo partly drawn) [Compound 9g, (11aS)-8-(5-[(2,6-di(methyloxy)-4-3-[2,3,4-tri(methyloxy)phenyl]-4,5-dihydro-5-isoxazolylphenyl)oxy]pentyloxy)-7-(methyloxy)-2,3,5,11a-tetrahydro-1H-benzo[e]pyrrolo[1,2-a][1,4]diazepin-5-one] | 1.4 | 2.1
COc1cc2c(cc1O)N=CC1CCCN1C2=O (centres unmarked) [DC-81, reference compound] | 0.3 | 0.7
COc1cc(C2=NOC(c3cc(OC)c(OC)c(OC)c3)C2)ccc1OCCCCCOc1cc2c(cc1OC)C(=O)N1CCC[C@H]1C=N2 (stereo partly drawn) [Compound 5c, (11aS)-7-(methyloxy)-8-(5-[(2-(methyloxy)-4-5-[3,4,5-tri(methyloxy)phenyl]-4,5-dihydro-3-isoxazolylphenyl)oxy]pentyloxy)-2,3,5,11a-tetrahydro-1H benzo[e]pyrrolo[1,2-a][1,4]diazepi-5-one] | 7.0 | 8

— patent publication US8372831B2, “Isoxazoline linked pyrrolo[2,1-c][1,4]benzodiazepine hybrids as potential anticancer agents and the process for preparation thereof” (Council of Scientific & Industrial Research, priority 2008, dated 2013)
